Test results reported in patent publication US11896591B2, “Compositions and methods for preparing and using mitochondrial uncouplers” (UNIVERSITY OF VIRGINIA PATENT FOUNDATION, priority 2017, dated 2024).
Entries after “also recorded” stand apart in the source; their conditions may differ.

Tests used:
[1] = test system: Diet-induced Obesity Mouse Model; assay: Diet Induced Obesity Mouse Study; assay type: in vivo, Male C57B/6J mice
Procedure: Male C57B/6J mice aged 3 months (n=6) are assigned to one of three treatment groups: normal chow diet (Chow), western diet (WD) or western diet containing compound 4c (WD+4c). Mice fed WD and WD 4c are individually housed and given 3 grams of fresh food daily. WD+4c contained a dose of 4c equivalent to 50 mg/kg/day. For all treatments pre-weighed food is placed in cages and food intake is calculated daily. Fat and lean mass are measured by EchoMRI. Fat and lean mass for mice given the high fat Western Diet or the Western Diet with the compound 4c was determined by Echo MRI and shown in FIG. 6.

[2] = test system: STAM mouse model of fatty liver disease; assay: STAM mouse model of fatty liver disease (NALFD criteria: steatosis, inflammation, ballooning); assay type: in vivo
whole cells = assay: Oxygen consumption rate (OCR) in whole cells, Seahorse XF-24 Flux Analyzer; assay type: cell-based; settings: for EC50: binned EC50 values, increase in oxygen consumption rate in whole cells
Method in brief: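 NMuLi, C2C12, L6 cells, isolated cardiomyocytes and human primary fibroblasts seeded at set densities and adhered 24 h. Compounds injected during Seahorse XF-24 runs; OCR increase measured in 2 min periods, 2-3 wells per condition over three plates (n=6-9), two-way ANOVA with Bonferroni posttest.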

[3] = patients consuming ˜300 mg/d, over several months, without changes in food intake; cited from earlier work

Compound | EC50 (whole cells) | also measured
Fc1cccc(Nc2nc3nonc3nc2Nc2ccccc2F)c1 [Compound 4c, N^5-(2-fluorophenyl)-N^6-(3-fluorophenyl)-[1,2,5]oxadiazolo[3,4-b]pyrazine-5,6-diamine] | < 5 µM | Glucose tolerance test ([1]; WD + 50 mg/kg/day compound 4c vs WD): significantly improved glucose tolerance; Lean mass ([1]; WD + 4c 50 mg/kg/day vs WD, EchoMRI): without losing lean mass; also recorded: substantially the same lean mass; Food intake ([1]; WD + 4c vs WD): without a significant change in food intake; Fat mass ([1]; Western Diet (WD) + 4c 50 mg/kg/day vs WD, EchoMRI): gain less fat mass; also recorded: gained significantly less fat mass; Anti-inflammatory effects ([2]; STAM mouse model (FIG. 3)): anti-inflammatory effects; Combined NALFD score ([2]; based on the steatosis, inflammation and ballooning assays, vs BAM15): significantly lower NALFD score than BAM15; Oxygen consumption rate as a function of drug dose (whole cells; compared with BAM15 or FCCP (FIG. 1, FIG. 2)): higher oxygen consumption rate than mitochondrial uncouplers, BAM15 or FCCP; also recorded: consistently high oxygen consumption rate than the mitochondrial uncoupler BAM15
Cn1c(C(F)(F)F)nc2nc(Nc3ccccc3F)c(NC3CCCCC3)nc21 [Compound 13v, 1-Methyl-N^5-(2-fluorophenyl)-N^6-cyclohexyl-2-(trifluoromethyl)-imidazo[4,5-b]pyrazine-5,6-diamine] | > 20 µM | –
CCCNc1nc2c(nc1Nc1ccccc1F)nc(C(F)(F)F)n2C [Compound 13w, 1-Methyl-N^5-(2-fluorophenyl)-N^6-propyl-2-(trifluoromethyl)-imidazo[4,5-b]pyrazine-5,6-diamine] | > 20 µM | –
Cn1c(C(F)(F)F)nc2nc(Nc3ccccc3F)c(NCCC(F)(F)F)nc21 [Compound 13x, 1-Methyl-N^5-(2-fluorophenyl)-N^6-3,3,3-trifluoropropyl-2-(trifluoromethyl)-imidazo[4,5-b]pyrazine-5,6-diamine] | > 20 µM | –
O=[N+]([O-])c1ccc(O)c([N+](=O)[O-])c1 [DNP, 2,4-dinitrophenol] | – | Weight loss [3]: 1.5 pounds per week

The next lines start with results.

EC50 (whole cells) | Compound | also measured
5 to 20 µM | COC(=O)n1c(C(F)(F)F)nc2nc(Nc3ccccc3F)c(Nc3ccccc3F)nc21 [Compound 14a, Methyl 5,6-bis((2-fluorophenyl)amino)-2-(trifluoromethyl)-imidazo[4,5-b]pyrazine-1-carboxylate] | –
5 to 20 µM | COC(=O)n1c(C(F)(F)F)nc2nc(Nc3cc(F)cc(F)c3)c(Nc3cc(F)cc(F)c3)nc21 [Compound 14c, Methyl 5,6-bis((3,5-difluorophenyl)amino)-2-(trifluoromethyl)-imidazo[4,5-b]pyrazine-1-carboxylate] | –
< 5 µM | FC(F)(F)c1cccc(Nc2nccnc2Nc2cccc(C(F)(F)F)c2)c1 [Compound 16b, N^2,N^3-bis(3-(trifluoromethyl)phenyl)pyrazine-2,3-diamine] | –
< 5 µM | FC(F)(F)c1ccc(Nc2nccnc2Nc2ccc(C(F)(F)F)cc2)cc1 [Compound 16c, N^2,N^3-bis(4-(trifluoromethyl)phenyl)pyrazine-2,3-diamine] | –
5 to 20 µM | FC(F)(F)c1cc(Nc2nccnc2Nc2cc(C(F)(F)F)cc(C(F)(F)F)c2)cc(C(F)(F)F)c1 [Compound 16f, N^2,N^3-bis(3,5-bis(trifluoromethyl)phenyl)pyrazine-2,3-diamine] | –
5 to 20 µM | Fc1cc(C(F)(F)F)ccc1Nc1nccnc1Nc1ccc(C(F)(F)F)cc1F [Compound 16h, N^2,N^3-bis(2-fluoro-4-(trifluoromethyl)phenyl)pyrazine-2,3-diamine] | –
< 5 µM | FC(F)(F)Oc1ccc(Nc2nccnc2Nc2ccc(OC(F)(F)F)cc2)cc1 [Compound 16n, N^2,N^3-bis(4-(trifluoromethoxy)phenyl)pyrazine-2,3-diamine] | –
